These results are taken from patent publication US20100048660A1, “TREATMENT OF DUCHENNE MUSCULAR DYSTROPHY” (priority 2006, published 2010).

This assay has as its system Utrophin A promoter linked to a luciferase reporter gene (H2K/mdx/Utro A reporter cell line). The experiment in a line: Luciferase reporter assay (murine H2K cells). It is filed as cell-based. To be noted: Mus musculus; Table 1; murine H2K mdx myoblasts, compound final concentration 10 μM, 48 hrs; read-out: Activity (luciferase reporter assay, relative to control). How it is done:
1. Luciferase Reporter Assay (Murine H2K Cells)
The cell line used for the screen is an immortalized mdx mouse H2K cell line that has been stably transfected with a plasmid containing ≈5 kb fragment of the Utrophin A promoter including the first untranslated exon linked to a luciferase reporter gene (see FIG. 1).
Under conditions of low temperature and interferon containing media, the cells remain as myoblasts. These are plated into 96 well plates and cultured in the presence of compound for three days. The level of luciferase is then determined by cell lysis and reading of the light output from the expressed luciferase gene utilising a plate luminometer.
The H2K/mdx/Utro A reporter cell line was passaged twice a week until ≦30% confluent. The cells were grown at 33° C. in the presence of 10% CO2
The H2K/mdx/Utro A reporter cell line cells were plated out into 96 well plates (Falcon 353296, white opaque) at a density of approximately 5000 cells/well in 190 μl normal growth medium. The plates were then incubated at 33° C. in the presence of 10% CO2 for 24 hrs.
Compounds were dosed by adding 10 μl of diluted compound to each well giving a final concentration of 10 μM. The plates were then incubated for a further 48 hrs
Cells were then lysed in situ following the manufacture's protocols (Promega Steady-Glo Luciferase Assay System (E2520). Then counted for 10 seconds using a plate luminometer (Victorl420).
(A reporter such as luciferase makes a cellular process visible.)
For `Cc1cc2nn(-c3ccc(Cl)cc3)nc2cc1NC(=O)c1cccnc1` [Example 1, N-(2-(4-chlorophenyl)-6-methyl-2H-benzo[d][1,2,3]triazol-5-yl)nicotinamide], the activity at 10 µM was 301 to 400%.
For `Cc1cc2nn(-c3ccc(Cl)cc3)nc2cc1NC(=O)c1ccncc1` [Example 2, N-(2-(4-chlorophenyl)-6-methyl-2H-benzo[d][1,2,3]triazol-5-yl)isonicotinamide] the value was 201 to 300%; for `Cc1cc2nn(-c3ccc(Cl)cc3)nc2cc1NC(=O)c1ccccc1` [Example 3, N-(2-(4-chlorophenyl)-6-methyl-2H-benzo[d][1,2,3]triazol-5-yl)benzamide], less than 200%.
For `COc1ccc(C(=O)Nc2cc3nn(-c4ccc(Cl)cc4)nc3cc2C)cc1` [Example 4, N-(2-(4-chlorophenyl)-6-methyl-2H-benzo[d][1,2,3]triazol-5-yl)-4-methoxybenzamide] the value was 201 to 300%; for `COc1ccccc1C(=O)Nc1cc2nn(-c3ccc(Cl)cc3)nc2cc1C` [Example 5, N-(2-(4-chlorophenyl)-6-methyl-2H-benzo[d][1,2,3]triazol-5-yl)-2-methoxybenzamide], less than 200%.
For `Cc1cc2nn(-c3ccc(Cl)cc3)nc2cc1NC(=O)c1cccs1` [Example 6, N-(2-(4-chlorophenyl)-6-methyl-2H-benzo[d][1,2,3]triazol-5-yl)thiophene-2-carboxamide] the value was 301 to 400%.
For `CCC(=O)Nc1cc2nn(-c3ccc(Cl)cc3)nc2cc1C` [Example 7, N-(2-(4-chlorophenyl)-6-methyl-2H-benzo[d][1,2,3]triazol-5-yl)propionamide], the activity at 10 µM is less than 200%.
For the molecule `CCCC(=O)Nc1cc2nn(-c3ccc(Cl)cc3)nc2cc1C` [Example 8, N-(2-(4-chlorophenyl)-6-methyl-2H-benzo[d][1,2,3]triazol-5-yl)butyramide], the activity at 10 µM was in the range of 201 to 300%.
Regarding `CCCCC(=O)Nc1cc2nn(-c3ccc(Cl)cc3)nc2cc1C` [Example 9, N-(2-(4-chlorophenyl)-6-methyl-2H-benzo[d][1,2,3]triazol-5-yl)pentanamide], the activity at 10 µM is 201 to 300%.
To `Cc1cc2nn(-c3ccc(Cl)cc3)nc2cc1NC(=O)C(C)C` [Example 10, N-(2-(4-chlorophenyl)-6-methyl-2H-benzo[d][1,2,3]triazol-5-yl)isobutyramide] belongs 201 to 300%; to `Cc1cc2nn(-c3ccc(Cl)cc3)nc2cc1NC(=O)c1ccco1` [Example 11, N-(2-(4-chlorophenyl)-6-methyl-2H-benzo[d][1,2,3]triazol-5-yl)furan-2-carboxamide], 201 to 300%; to `CCN(CC)c1ccc(-n2nc3cc(C)c(NC(=O)c4cccnc4)cc3n2)cc1` [Example 12, N-(2-(4-(diethylamino)phenyl)-6-methyl-2H-benzo[d][1,2,3]triazol-5-yl)nicotinamide], 301 to 400%.
For `CCN(CC)c1ccc(-n2nc3cc(C)c(NC(=O)c4ccncc4)cc3n2)cc1` [Example 13, N-(2-(4-(diethylamino)phenyl)-6-methyl-2H-benzo[d][1,2,3]triazol-5-yl)isonicotinamide] the value was 301 to 400%; for `CCC(=O)Nc1cc2nn(-c3ccc(N(CC)CC)cc3)nc2cc1C` [Example 14, N-(2-(4-(diethylamino)phenyl)-6-methyl-2H-benzo[d][1,2,3]triazol-5-yl)propionamide], less than 200%.
For `CCCC(=O)Nc1cc2nn(-c3ccc(N(CC)CC)cc3)nc2cc1C` [Example 15, N-(2-(4-(diethylamino)phenyl)-6-methyl-2H-benzo[d][1,2,3]triazol-5-yl)butyramide] the value was less than 200%.
As to `CCCCC(=O)Nc1cc2nn(-c3ccc(N(CC)CC)cc3)nc2cc1C` [Example 16, N-(2-(4-(diethylamino)phenyl)-6-methyl-2H-benzo[d][1,2,3]triazol-5-yl)pentanamide], the activity at 10 µM was less than 200%.
For the molecule `CCN(CC)c1ccc(-n2nc3cc(C)c(NC(=O)C(C)C)cc3n2)cc1` [Example 17, N-(2-(4-(diethylamino)phenyl)-6-methyl-2H-benzo[d][1,2,3]triazol-5-yl)isobutyramide], the activity at 10 µM was less than 200%.
In the case of `CCN(CC)c1ccc(-n2nc3cc(C)c(NC(=O)c4ccco4)cc3n2)cc1` [Example 18, N-(2-(4-(diethylamino)phenyl)-6-methyl-2H-benzo[d][1,2,3]triazol-5-yl)furan-2-carboxamide], the activity at 10 µM was less than 200%.
In the case of `CCN(CC)c1ccc(-n2nc3ccc(N)cc3n2)cc1` [Example 19, 2-(4-(diethylamino)phenyl)-2H-benzo[d][1,2,3]triazol-5-amine], the activity at 10 µM lay in the range of 301 to 400%.
To `CCN(CC)c1ccc(-n2nc3ccc(NC(=O)c4cccnc4)cc3n2)cc1` [Example 20, N-(2-(4-(diethylamino)phenyl)-2H-benzo[d][1,2,3]triazol-5-yl)nicotinamide] belongs 201 to 300%; to `CCN(CC)c1ccc(-n2nc3ccc(NC(=O)c4ccncc4)cc3n2)cc1` [Example 21, N-(2-(4-(diethylamino)phenyl)-2H-benzo[d][1,2,3]triazol-5-yl)isonicotinamide], less than 200%; to `CCN(CC)c1ccc(-n2nc3ccc(NC(C)=O)cc3n2)cc1` [Example 22, N-(2-(4-(diethylamino)phenyl)-2H-benzo[d][1,2,3]triazol-5-yl)acetamide], 201 to 300%.
Turning to `CCC(=O)Nc1ccc2nn(-c3ccc(N(CC)CC)cc3)nc2c1` [Example 23, N-(2-(4-(diethylamino)phenyl)-2H-benzo[d][1,2,3]triazol-5-yl)propionamide], the activity at 10 µM is less than 200%.
With `CCCC(=O)Nc1ccc2nn(-c3ccc(N(CC)CC)cc3)nc2c1` [Example 24, N-(2-(4-(diethylamino)phenyl)-2H-benzo[d][1,2,3]triazol-5-yl)butyramide], the activity at 10 µM was less than 200%.
To `CCCCC(=O)Nc1ccc2nn(-c3ccc(N(CC)CC)cc3)nc2c1` [Example 25, N-(2-(4-(diethylamino)phenyl)-2H-benzo[d][1,2,3]triazol-5-yl)pentanamide] belongs less than 200%; to `CCN(CC)c1ccc(-n2nc3ccc(NC(=O)C(C)C)cc3n2)cc1` [Example 26, N-(2-(4-(diethylamino)phenyl)-2H-benzo[d][1,2,3]triazol-5-yl)isobutyramide], less than 200%; to `CCN(CC)c1ccc(-n2nc3ccc(NC(=O)c4ccco4)cc3n2)cc1` [Example 27, N-(2-(4-(diethylamino)phenyl)-2H-benzo[d][1,2,3]triazol-5-yl)furan-2-carboxamide], less than 200%.
To `CCN(CC)c1ccc(-n2nc3ccc(NC(=O)c4cccs4)cc3n2)cc1` [Example 28, N-(2-(4-(diethylamino)phenyl)-2H-benzo[d][1,2,3]triazol-5-yl)thiophene-2-carboxamide] belongs less than 200%.
Turning to `CCN(CC)c1ccc(-n2nc3ccc(NC(=O)c4ccccc4)cc3n2)cc1` [Example 29, N-(2-(4-(diethylamino)phenyl)-2H-benzo[d][1,2,3]triazol-5-yl)benzamide], the activity at 10 µM was less than 200%.
For the molecule `CCN(CC)c1ccc(-n2nc3ccc(NC(=O)c4ccc(OC)cc4)cc3n2)cc1` [Example 30, N-(2-(4-(diethylamino)phenyl)-2H-benzo[d][1,2,3]triazol-5-yl)-4-methoxybenzamide], the activity at 10 µM is less than 200%.
In the case of `CCN(CC)c1ccc(-n2nc3ccc(NC(=O)c4ccccc4OC)cc3n2)cc1` [Example 31, N-(2-(4-(diethylamino)phenyl)-2H-benzo[d][1,2,3]triazol-5-yl)-2-methoxybenzamide], the activity at 10 µM was less than 200%.
On to `CCN(CC)c1ccc(-n2nc3ccc(NC(=O)c4ccc(Cl)cc4)cc3n2)cc1` [Example 32, 4-chloro-N-(2-(4-(diethylamino)phenyl)-2H-benzo[d][1,2,3]triazol-5-yl)benzamide], for which the activity at 10 µM is less than 200%.
To `CCN(CC)c1ccc(-n2nc3ccc(NC(=O)c4ccc(N(C)C)cc4)cc3n2)cc1` [Example 33, N-(2-(4-(diethylamino)phenyl)-2H-benzo[d][1,2,3]triazol-5-yl)-4-(dimethylamino)benzamide] belongs less than 200%; to `Cc1cc2nn(-c3ccc(N4CCOCC4)cc3)nc2cc1N` [Example 34, 6-methyl-2-(4-morpholinophenyl)-2H-benzo[d][1,2,3]triazol-5-amine], 201 to 300%; to `CCC(=O)Nc1ccc2nn(-c3ccc(Cl)cc3)nc2c1` [Example 35, N-(2-(4-chlorophenyl)-2H-benzo[d][1,2,3]triazol-5-yl)propionamide], greater than 401%.
Regarding `CCCC(=O)Nc1ccc2nn(-c3ccc(Cl)cc3)nc2c1` [Example 36, N-(2-(4-chlorophenyl)-2H-benzo[d][1,2,3]triazol-5-yl)butyramide], the activity at 10 µM was 301 to 400%.
For `CC(C)C(=O)Nc1ccc2nn(-c3ccc(Cl)cc3)nc2c1` [Example 37, N-(2-(4-chlorophenyl)-2H-benzo[d][1,2,3]triazol-5-yl)isobutyramide] the value was greater than 401%; for `Nc1ccc2nn(-c3ccc(Cl)cc3)nc2c1` [Example 38, 2-(4-chlorophenyl)-2H-benzo[d][1,2,3]triazol-5-amine], less than 200%.
